Measurements: patent US20100158863A1, “TRIAZOLOANILINOPYRIMIDINE DERIVATIVES FOR USE AS ANTIVIRAL AGENTS” (ARROW THERAPEUTICS LIMITED, priority 2006, published 2010)
Where two headings read alike, the source gives them in different places.

Tests used:
HCV replicon 1b (Huh-9B) = test: HCV replicon activity, luciferase detection on the replicon plate; format: cell-based, HCV genotype 1b; settings: Hepatitis C virus; Huh-9B replicon cells, luciferase signal
Source text: 1b replicon (Huh.7) described in Science 285, 110-113. • Huh-9B: liver cell line with persistent bicistronic HCV genotype 1b coding sequence: [I3891ucubineo—3-3′_ET] includes firefly luciferase-ubiquitin-neomycin phosphotransferase fusion protein and EMCV-IRES driven non-structural HCV (NS3 to NS5B) coding sequence including cell culture adaptive mutations E1202G, […] and K1846T (Lohmann et al, 2001).
This assay is set up using all 96 wells of flat-bottomed 96-well plates. Plates are set up one day before addition of compounds. The assay then runs for 4 days with ELISA development taking place on the 5th day.
Exponentially growing Huh-9B monolayers are washed with sterile PBS to remove serum and treated with trypsin to detach cells from the flask.
(§1) Cells are suspended in growth media and counted using a haemocytometer. Duplicate 96 well plates are seeded with Huh-9B at a density of 10^4 cells/well in a total volume of 100 μl/well of growth medium without antibiotics as depicted below.
(§2) One of the plates is an opaque white 96-well plate used for IC50 determination based on the luciferase signal (referred as replicon plate), the other one is a clear 96-well plate used for a parallel determination of drug toxicity by methylene blue staining (referred as tox plate). Wells G12 and H12 of the tox plate are left without cells to use as buffer alone background reading.
Plates are then incubated at 37° C. in a 5% CO2 environment for 24 h to obtain a 90% confluent cell monolayer.
(§3) Doubling dilutions of each compound are generated in a separate 96 high volume capacity round bottom plate to twice their initial concentration in the assay using growth medium without antibiotics.
Five compounds (C1 to C5) are tested on each assay plate as illustrated below plus a control compound that is also included in each plate.
(§4) Compounds are tested across an 8 point doubling dilution series. The initial dilution of each compound to be tested is 25 μM and 12.5 μM for the control compound.
DMSO only wells (A1 and A2) at 1% provide the signal corresponding to maximal (100%) luciferase detection. […] The signal from the DMSO wells at 1% (maximal signal) constitutes the assay window.
(§5) For each compound dilution on the 2×96-well dilution plate 100 μl are transferred using a multichannel pipette onto the replicon and tox plates mirror wells which contain […] of medium to obtain the desired final concentration.
Media is tapped out from wells into Virkon and plates are washed once in warm PBS and tapped dry gently.
For each well 20 μl of lysis buffer is added by multichannel pipette. Lysates are stable at this point for several hours.
Luciferase assay buffer is placed it in the luminometer (Lmax, Molecular Devices).
The M injector is primed with 4×300 μl of luciferase assay buffer. The plate to be analyzed is placed in the luminometer and […] of luciferase assay buffer injected automatically into one well followed by 4 seconds integration read out.
After one second delay a second well is injected with 100 μl of luciferase assay buffer followed by 4 seconds integration read out and so forth until all 96 wells are analyzed.
Once the reading is finished the luminometer injection system is washed with deionised water.
The data is acquired using the SOFTmax for Lmax Pro software package.
(§6) SOFTmax data files are exported as Excel or text files. A standard four parameters non-linear regression analysis of the data obtained from each compound is then used to calculate the IC50.
(§7) In the above analysis all replicate wells are meaned. The % of control is then calculated for each concentration point as a percentage of the DMSO control wells.

Huh-9B = test: Toxicity determination on the tox plate by methylene blue staining; format: cell-based; settings: Huh-9B cells, parallel tox plate
Experimental: as §1, §2, §3, §4, §5
Media is tapped out from wells into Virkon and plates tapped dry gently. To each well 100 μl of 0.5% solution of methylene blue in 50% methanol is added to all wells including blanks (G12 and H12). Plates are left at RT for a minimum of 1 h. Plates are then rinsed gently by immersing in a plastic box with water, tapped dry gently and left open until they are fully dry. Dye is solubilized adding 100 μl of 1% lauroylsarcosine to each well and shaking for 1 h at 37° C. Plates are read on the SpectraMax spectrophotometer at 620 nm wavelength using the SOFTmax Pro software package.
as §6, §7

HCV replicon 1b = test: ELISA, combined effect of HCV replication inhibitor with interferon αA; format: cell-based; settings: for IC50: Hepatitis C virus
Source text: ELISA Protocol as in Example 38
The fractional inhibitory concentratin (FIC) can be used to identify a synergistic interaction.

SMILES | IC50 (HCV replicon 1b (Huh-9B)) [µM] | Replicon TD50 (Huh-9B) | IC50 (HCV replicon 1b; compound alone, read-out: ELISA IC50 against HCV replicon 1b) [µM] | IC50 (HCV replicon 1b; read-out: IC50 of compound in combination) [µM] | fractional inhibitory concentration (FIC) (HCV replicon 1b; combination with interferon αA, FIC <0.5 = synergy)
Brc1ccc2ncnc(Nc3ccc(-n4cncn4)cc3)c2c1 [Example 21, (6-Bromo-quinazolin-4-yl)-(4-[1,2,4]triazol-1-yl-phenyl)-amine] | < 5 | ** (** >25 μM) |  |  | 
COc1ccc(-c2ccc3ncnc(Nc4ccc(-n5cncn5)cc4)c3c2)cc1OC [Example 10, [6-(3,4-Dimethoxy-phenyl)-quinazolin-4-yl]-(4-[1,2,4]triazol-1-yl-phenyl)-amine] | < 5 | * (* <25 μM) | 0.2 | ≤ 0.067 | 0.336
Fc1cc(-c2ccc3ncnc(Nc4ccc(-n5cncn5)cc4)c3c2)ccc1OCCCN1CCCC1 [Example 25, {6-[3 fluoro-4-(3-pyrrolidin-1-yl-propoxy)-phenyl]-quinazoline-4-yl}-(4-[1,2,4]triazole-1-yl-phenyl)amine] | < 5 | * (* <25 μM) |  |  | 
CC(C)Oc1cc(-c2ccc3ncnc(Nc4ccc(-n5cncn5)cc4)c3c2)ccc1F [Example 24, [6-(4-Fluoro-3-isopropoxy-phenyl)-quinazolin-4-yl]-(4-[1,2,4]triazol-1-yl-phenyl)-amine] | < 5 | ** (** >25 μM) |  |  | 
COc1ccc(-c2ccc3ncnc(Nc4ccc(-n5cncn5)cc4C)c3c2)cc1OC [Example 27, [6-(3,4-Dimethoxy-phenyl)-quinazolin-4-yl]-(2-methyl-4-[1,2,4]triazol-1-yl-phenyl)-amine] | < 5 | * (* <25 μM) |  |  | 
CN(C)CCOc1ccc(-c2ccc3ncnc(Nc4ccc(-n5cncn5)cc4)c3c2)cc1 [Example 12, {6-[4-(2-Dimethylamino-ethoxy)-phenyl]-quinazolin-4-yl}-(4-[1,2,4]triazol-1-yl-phenyl)-amine] | < 5 | * (* <25 μM) |  |  | 
Ic1ccc2ncnc(Nc3ccc(-n4cncn4)cc3)c2c1 [Example 1, (6-Iodo-quinazolin-4-yl)-(4-[1,2,4]triazol-1-yl-phenyl)-amine] | < 5 | * (* <25 μM) |  |  | 
CNC(=O)c1nc(C)n(-c2ccc(Nc3ncnc4ccc(-c5ccc(OCCOC)c(F)c5)cc34)cc2)n1 [Example 31, 1-(4-{6-[3-Fluoro-4-(2-methoxy-ethoxy)-phenyl]-quinazolin-4-ylamino}-phenyl)-5-methyl-1H-[1,2,4]triazole-3-carboxylic acid methylamide] | < 5 | ** (** >25 μM) |  |  | 
